This note sets out measurements from patent US9409866B2, “Pyridine-2-amides useful as CB2 agonists” (Hoffmann-La Roche Inc., priority 2012, dated 2016).

Structures are written as SMILES. Where two headings read alike, the source gives them in different places.

One assay addresses human CB2 receptors (Homo sapiens (Human), UniProt P34972). Briefly: functional cAMP assay, CHO cells expressing human CB2. It is filed as cell-based. The method, boiled down: (§1)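 CHO-hCB1/hCB2 cells, KRB + 1 mM IBMX preincubation 30 min 30 °C; cpd 30 min 30 °C; lysis + TR-FRET cAMP detection, 2 h RT; cAMP from std curve; EC50.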
A general note: cAMP levels reflect the balance of adenylyl cyclase and phosphodiesterase activity.

A further assay deals with human CB1 receptors (Homo sapiens (Human), UniProt P21554). Briefly: functional cAMP assay, CHO cells expressing human CB1. It is filed as cell-based. The method, boiled down:
as §1

[1] abbreviates: functional cAMP assay, CHO cells expressing human CB1; read-out: Human CB1 EC50.
Where [2] appears, read: Human CB1 EC50 (uM), functional cAMP assay, CHO cells expressing human CB1.
[3] abbreviates: read-out: Human CB1 EC50; functional cAMP assay, CHO cells expressing human CB1.

Sequence of human CB1 receptors (P21554 whole entry): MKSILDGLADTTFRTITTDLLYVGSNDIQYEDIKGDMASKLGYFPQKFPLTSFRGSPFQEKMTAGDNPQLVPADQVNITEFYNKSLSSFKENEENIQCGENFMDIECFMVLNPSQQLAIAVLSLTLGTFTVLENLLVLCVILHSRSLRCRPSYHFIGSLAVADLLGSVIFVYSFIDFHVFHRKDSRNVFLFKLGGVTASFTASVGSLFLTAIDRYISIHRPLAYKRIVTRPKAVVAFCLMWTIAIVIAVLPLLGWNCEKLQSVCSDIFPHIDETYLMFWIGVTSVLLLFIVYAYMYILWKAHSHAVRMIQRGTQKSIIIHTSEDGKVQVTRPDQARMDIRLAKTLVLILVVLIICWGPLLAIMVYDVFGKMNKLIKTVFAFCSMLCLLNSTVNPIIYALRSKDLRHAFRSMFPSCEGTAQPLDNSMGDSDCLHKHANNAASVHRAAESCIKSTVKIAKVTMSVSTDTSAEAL
Sequence of human CB2 receptors (P34972 whole entry): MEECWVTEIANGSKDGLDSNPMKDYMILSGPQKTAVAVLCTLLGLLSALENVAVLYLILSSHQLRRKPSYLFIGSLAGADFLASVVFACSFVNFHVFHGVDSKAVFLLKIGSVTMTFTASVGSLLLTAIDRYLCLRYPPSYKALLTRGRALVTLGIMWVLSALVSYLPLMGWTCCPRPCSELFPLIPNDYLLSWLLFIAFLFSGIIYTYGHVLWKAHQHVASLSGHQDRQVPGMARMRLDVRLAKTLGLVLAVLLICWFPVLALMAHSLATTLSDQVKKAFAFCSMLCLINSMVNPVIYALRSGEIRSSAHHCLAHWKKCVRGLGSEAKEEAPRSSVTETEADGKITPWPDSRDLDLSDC

The term EC50 denotes the concentration at which the effect is half-maximal. As to `Cc1nc(C(C)(CS(C)(=O)=O)NC(=O)c2cc(OCC(F)(F)F)c(Cl)cn2)no1` (stereo not shown) [Example 80, 5-Chloro-4-(2,2,2-trifluoro-ethoxy)-pyridine-2-carboxylic acid [2-methanesulfonyl-1-methyl-1-(5-methyl-[1,2,4]oxadiazol-3-yl)-ethyl]-amide], the concentration giving a half-maximal response (EC50) at human CB2 receptors (read-out: Human CB2 EC50) was 0.969 µM; on human CB1 receptors (setting [1]) it was > 10 µM.
`Cc1nc([C@](C)(CC2CC2)NC(=O)c2cc(OCC(F)(F)F)c(C3CC3)cn2)no1` (single isomer, unassigned; enantiomer b) [Example 67, 5-Cyclopropyl-4-(2,2,2-trifluoro-ethoxy)-pyridine-2-carboxylic acid [2-cyclopropyl-1-methyl-1-(5-methyl-[1,2,4]oxadiazol-3-yl)-ethyl]-amide (enantiomer B)]: the concentration for a half-maximal effect (EC50) came to 0.0037 µM on human CB2 receptors (Human CB2 EC50 (uM)) and 5.28 µM on human CB1 receptors (setting [2]).
For `Cc1nc(C(C)(NC(=O)c2cc(OCC(F)(F)F)c(C3(F)COC3)cn2)C2CC2)no1` (single isomer, unassigned) [Example 166, N-[1-cyclopropyl-1-(5-methyl-1,2,4-oxadiazol-3-yl)ethyl]-5-(3-fluorooxetan-3-yl)-4-(2,2,2-trifluoroethoxy)pyridine-2-carboxamide] the same measures were 0.31 µM and > 10 µM.
For `CNC(=O)[C@@H](NC(=O)c1cc(OC2COC2)c(Cl)cn1)C(C)(C)C` [Example 23, 5-Chloro-4-(oxetan-3-yloxy)-pyridine-2-carboxylic acid ((S)-2,2-dimethyl-1-methylcarbamoyl-propyl)-amide], the EC50 at human CB2 receptors (read-out: Human CB2 EC50) was 0.205 µM; at human CB1 receptors (setting [1]) it was > 10 µM.
Turning to `CC(CC(N)=O)(NC(=O)c1cc(OCCF)c(C2CC2)cn1)C1CC1` (single isomer, unassigned) [Example 271, N-[4-amino-2-cyclopropyl-4-oxobutan-2-yl]-5-cyclopropyl-4-(2-fluoroethoxy)pyridine-2-carboxamide], the concentration giving a half-maximal response (EC50) was 0.0015 µM on human CB2 receptors (Human CB2 EC50 (uM)) and > 10 µM on human CB1 receptors (setting [3]).
As to `C[C@H](Oc1cc(C(=O)NC(C(=O)N(C)C)C(C)(C)C)ncc1C1CC1)C(F)(F)F` (stereo partly drawn) [Example 201, 5-cyclopropyl-N-[1-(dimethylamino)-3,3-dimethyl-1-oxobutan-2-yl]-4-[(2S)-1,1,1-trifluoropropan-2-yl]oxypyridine-2-carboxamide], the EC50 on human CB2 receptors (read-out: Human CB2 EC50) was 0.0024 µM; on human CB1 receptors (setting [1]), > 10 µM.
As to `CNC(=O)CC(C)(NC(=O)c1cc(OCC(F)(F)F)c(C2CC2)cn1)C1CC1` (single isomer, unassigned) [Example 241, 5-cyclopropyl-N-[2-cyclopropyl-4-(methylamino)-4-oxobutan-2-yl]-4-(2,2,2-trifluoroethoxy)pyridine-2-carboxamide], the EC50 at human CB2 receptors (Human CB2 EC50 (uM)) was 0.0119 µM; at human CB1 receptors (setting [2]) it was > 10 µM.
On to `CNC(=O)C(NC(=O)c1cc(O[C@@H](C)C(F)(F)F)c(C2CC2)cn1)C(C)(C)O` (stereo partly drawn) [Example 252, 5-cyclopropyl-N-[3-hydroxy-3-methyl-1-(methylamino)-1-oxobutan-2-yl]-4-[(2S)-1,1,1-trifluoropropan-2-yl]oxypyridine-2-carboxamide], for which the EC50 is 0.344 µM on human CB2 receptors (read-out: Human CB2 EC50) and > 10 µM on human CB1 receptors (setting [1]).
For `Cc1nc(C(NC(=O)c2cc(O[C@@H](C)C(F)(F)F)c(C3CC3)cn2)C2(C)COC2)no1` (stereo partly drawn) [Example 254, 5-cyclopropyl-N-[(5-methyl-1,2,4-oxadiazol-3-yl)-(3-methyloxetan-3-yl)methyl]-4-[(2S)-1,1,1-trifluoropropan-2-yl]oxypyridine-2-carboxamide] the same measures were 0.0065 µM and > 10 µM.
The like results for `O=C(NCC1(O)CCCC1)c1cc(OCC2CC2)c(C2CC2)cn1` [Example 56, 5-Cyclopropyl-4-cyclopropylmethoxy-pyridine-2-carboxylic acid (1-hydroxy-cyclopentylmethyl)-amide] were, in that order, 0.0181 µM and > 10 µM.
For `Cc1nnc(C(NC(=O)c2cc(OCC(F)(F)F)c(C3CC3)cn2)C2(C)COC2)o1` (stereo not shown) [Example 245, 5-cyclopropyl-N-[(5-methyl-1,3,4-oxadiazol-2-yl)-(3-methyloxetan-3-yl)methyl]-4-(2,2,2-trifluoroethoxy)pyridine-2-carboxamide] the same measures were 0.997 µM and > 10 µM.
On to `CNC(=O)C(C)(NC(=O)c1cc(OCC(F)(F)F)c(C2CC2)cn1)c1noc(C)n1` (stereo not shown) [Example 149, 5-cyclopropyl-N-[1-(methylamino)-2-(5-methyl-1,2,4-oxadiazol-3-yl)-1-oxopropan-2-yl]-4-(2,2,2-trifluoroethoxy)pyridine-2-carboxamide], for which the EC50 on human CB2 receptors (read-out: Human CB2 EC50) was 0.0127 µM; at human CB1 receptors (setting [1]) it was > 10 µM.
For the compound `O=C(NCC1(CO)CCCC1)c1cc(OCC2CC2)c(Cl)cn1` [Example 20, 5-Chloro-4-cyclopropylmethoxy-pyridine-2-carboxylic acid (1-hydroxymethyl-cyclopentylmethyl)-amide], the EC50 was 0.0232 µM on human CB2 receptors (read-out: Human CB2 EC50) and > 10 µM on human CB1 receptors (setting [1]).
As to `CNC(=O)CC(C)(NC(=O)c1cc(O[C@@H](C)C(F)(F)F)c(C2CC2)cn1)C1CC1` (stereo partly drawn) [Example 247, 5-cyclopropyl-N-[2-cyclopropyl-4-(methylamino)-4-oxobutan-2-yl]-4-[(2S)-1,1,1-trifluoropropan-2-yl]oxypyridine-2-carboxamide], the EC50 was 0.0193 µM at human CB2 receptors (read-out: Human CB2 EC50) and > 10 µM on human CB1 receptors (setting [1]).
As for `Cc1nnc(C(NC(=O)c2cc(OCC(F)(F)F)c(C3CC3)cn2)C(C)(C)C)o1` (stereo not shown) [Example 174, 5-cyclopropyl-N-[2,2-dimethyl-1-(5-methyl-1,3,4-oxadiazol-2-yl)propyl]-4-(2,2,2-trifluoroethoxy)pyridine-2-carboxamide], the figures for the 50% effective concentration (EC50) at human CB2 receptors (read-out: Human CB2 EC50) and on human CB1 receptors (setting [1]) were 0.0218 µM and > 10 µM, respectively.
For the compound `CC(C)(C)C(NC(=O)c1cc(OCC(F)(F)F)c(N2CC(F)(F)C2)cn1)C(N)=O` (single isomer, unassigned) [Example 263, N-[1-amino-3,3-dimethyl-1-oxobutan-2-yl]-5-(3,3-difluoroazetidin-1-yl)-4-(2,2,2-trifluoroethoxy)pyridine-2-carboxamide], the EC50 on human CB2 receptors (Human CB2 EC50 (uM)) is 0.0338 µM; at human CB1 receptors (setting [3]), > 10 µM.
With `NC(=O)CC1(NC(=O)c2cc(OCC(F)F)c(C3CC3)cn2)CS(=O)(=O)C1` [Example 274, N-[3-(2-amino-2-oxoethyl)-1,1-dioxothietan-3-yl]-5-cyclopropyl-4-(2,2-difluoroethoxy)pyridine-2-carboxamide], the figures for the concentration for a half-maximal effect (EC50) on human CB2 receptors (read-out: Human CB2 EC50) and on human CB1 receptors (setting [1]) were 0.0101 µM and > 10 µM, respectively.
For `Cc1nc(C(C)(CC2CC2)NC(=O)c2cc(O[C@@H](C)C(F)(F)F)c(C3CCC3)cn2)no1` (stereo partly drawn) [Example 110, 5-Cyclobutyl-4-((S)-2,2,2-trifluoro-1-methyl-ethoxy)-pyridine-2-carboxylic acid [2-cyclopropyl-1-methyl-1-(5-methyl-[1,2,4]oxadiazol-3-yl)-ethyl]-amide] the same measures were 0.0008 µM and 0.31 µM.
Turning to `COC(=O)C(C)C(C)(C)NC(=O)c1cc(OCC2CC2)c(Cl)cn1` (stereo not shown) [Example 31, Methyl 3-({[5-chloro-4-(cyclopropylmethoxy)pyridin-2-yl]carbonyl}amino)-2,3-dimethylbutanoate], the concentration giving a half-maximal response (EC50) was 0.0095 µM on human CB2 receptors (read-out: Human CB2 EC50) and > 10 µM on human CB1 receptors (setting [1]).
With `CC(C)(C#N)NC(=O)c1cc(OCC2CC2)c(Cl)cn1` [Example 8, 5-Chloro-4-cyclopropylmethoxy-pyridine-2-carboxylic acid (cyano-dimethyl-methyl)-amide], the EC50 at human CB2 receptors (read-out: Human CB2 EC50) was 0.159 µM; on human CB1 receptors (setting [1]), > 10 µM.
With `CC(CC(N)=O)(NC(=O)c1cc(OCC(F)F)c(C2CC2)cn1)C1CC1` (single isomer, unassigned) [Example 273, N-[4-amino-2-cyclopropyl-4-oxobutan-2-yl]-5-cyclopropyl-4-(2,2-difluoroethoxy)pyridine-2-carboxamide], the EC50 at human CB2 receptors (Human CB2 EC50 (uM)) was 0.0017 µM; at human CB1 receptors (setting [3]), > 10 µM.
Consider `Cc1nc(C(C)(CC2CC2)NC(=O)c2cc(OC(C)CF)c(C3CC3)cn2)no1` (single isomer, unassigned) [Example 289, 5-cyclopropyl-N-(1-cyclopropyl-2-(5-methyl-1,2,4-oxadiazol-3-yl)propan-2-yl)-4-(1-fluoropropan-2-yloxy)picolinamide], for which the EC50 on human CB2 receptors (read-out: Human CB2 EC50) is 0.001 µM; on human CB1 receptors (setting [3]), > 10 µM.
Take `Cn1nnnc1C(NC(=O)c1cc(OCC(F)(F)F)c(C2CC2)cn1)C(C)(C)C` (single isomer, unassigned) [Example 205, 5-cyclopropyl-N-[2,2-dimethyl-1-(1-methyltetrazol-5-yl)propyl]-4-(2,2,2-trifluoroethoxy)pyridine-2-carboxamide]: the figures for the EC50 at human CB2 receptors (Human CB2 EC50 (uM)) and at human CB1 receptors (setting [2]) were 0.108 µM and > 10 µM, respectively.
Regarding `CNC(=O)C(NC(=O)c1cc(O[C@@H](C)C(F)(F)F)c(C2CC2)cn1)C(C)(C)O` (stereo partly drawn) [Example 253, 5-cyclopropyl-N-[3-hydroxy-3-methyl-1-(methylamino)-1-oxobutan-2-yl]-4-[(2S)-1,1,1-trifluoropropan-2-yl]oxypyridine-2-carboxamide], the EC50 was 0.0019 µM at human CB2 receptors (read-out: Human CB2 EC50) and > 10 µM at human CB1 receptors (setting [1]).
With `Cc1nc(C(C)(CC2CC2)NC(=O)c2cc(OCC(F)F)c(C3CC3)cn2)no1` (single isomer, unassigned) [Example 154, 5-cyclopropyl-N-[1-cyclopropyl-2-(5-methyl-1,2,4-oxadiazol-3-yl)propan-2-yl]-4-(2,2-difluoroethoxy)pyridine-2-carboxamide], the EC50 at human CB2 receptors (Human CB2 EC50 (uM)) is 0.0037 µM; at human CB1 receptors (setting [2]), > 10 µM.
`C[C@H](Oc1cc(C(=O)NC(c2nnn(C)n2)C(C)(C)C)ncc1C1CC1)C(F)(F)F` (stereo partly drawn) [Example 216, 5-cyclopropyl-N-[2,2-dimethyl-1-(2-methyltetrazol-5-yl)propyl]-4-[(2S)-1,1,1-trifluoropropan-2-yl]oxypyridine-2-carboxamide]: the EC50 on human CB2 receptors (read-out: Human CB2 EC50) was 0.0047 µM; on human CB1 receptors (setting [1]), > 10 µM.
